In US4419123A, “Herbicidal 4-trifluoromethyl-3'-carbon-substituted-4'-substituted diphenyl ethers” (Rohm and Haas Company, priority 1981, dated 1983):

Experiments:
[1] = Preemergence herbicidal activity (% control) against monocot weeds; type: in vivo; details: pre-emergence, 336 h, average, about two weeks after application, read-out: Herbicidal activity (% control), preemergence, monocots; for activity at 2241.7 g/ha: 2 lb./A.; for activity at 4483.4 g/ha: 4 lb./A.
From the text: (§1) barnyardgrass (Echinochloa crusgalli) crabgrass (Digitaria spp.) nutsedge (Cyperus esculentus)
(§2) At 2 and 4 pounds per acre:
(§3) **Bermudagrass (Cynodon dactylon)
(§4) *downy brome (Bromus tectorum) foxtail (Setaria faberii)
(§5) Johnsongrass (Sorghum halepense) […]
(§6) quackgrass (Agropyron repens)
(§7) *ryegrass (Lolium perenne)
(§8) *wild oats (Avena factua)
(§9) *yellow millet (Panicum miliaceum)
(§10) The following test procedure is employed.

[2] = Postemergence herbicidal activity (% control) against monocot weeds; type: in vivo; details: post-emergence, 336 h, average, about two weeks after application, read-out: Herbicidal activity (% control), postemergence, monocots; for activity at 2241.7 g/ha: 2 lb./A.; for activity at 4483.4 g/ha: 4 lb./A.
From the text: as §1, §2, §3, §4, §5, §6, §7, §8, §9, §10

cotton = test: Crop tolerance (selective herbicidal activity), cotton; type: in vivo; details: preemergence applications
Protocol: as §10
(§11) Following the general test procedure of Example 37, diphenyl ethers are evaluated for significant tolerance (as shown by 50% or less kill of the test crop at levels of application which give more than 50% kill of many or all of the weeds of Example 73) towards some or all of the following common agronomic crops (not all compounds tested against all crops): alfalfa, snapbeans, corn, cotton, cucumbers, peanuts, rape, rice, safflower, soybeans, tomatoes, and wheat.

peanuts = test: Crop tolerance (selective herbicidal activity), peanuts; type: in vivo
rice = test: Crop tolerance (selective herbicidal activity), rice; type: in vivo
soybeans = test: Crop tolerance (selective herbicidal activity), soybeans; type: in vivo; details: preemergence applications
wheat = test: Crop tolerance (selective herbicidal activity), wheat; type: in vivo
Protocol: as §10, §11

[3] = Preemergence herbicidal activity (% control) against dicot weeds; details: pre-emergence, 336 h; for activity at 2241.7 g/ha: read-out: Herbicidal activity (% control), preemergence, dicots, 2 lb./A., average, about two weeks after application; for activity at 4483.4 g/ha: read-out: Herbicidal activity (% control), preemergence, dicots, 4 lb./A., average, about two weeks after application
[4] = Postemergence herbicidal activity (% control) against dicot weeds; details: post-emergence, 336 h; for activity at 2241.7 g/ha: read-out: Herbicidal activity (% control), postemergence, dicots, 2 lb./A., average, about two weeks after application; for activity at 4483.4 g/ha: read-out: Herbicidal activity (% control), postemergence, dicots, 4 lb./A., average, about two weeks after application
snapbeans = test: Crop tolerance (selective herbicidal activity), snapbeans; type: in vivo; details: preemergence applications
Protocol: as §10, §11

corn = test: Crop tolerance (selective herbicidal activity), corn; type: in vivo
[5] = system: Monocots (barnyardgrass, Bermudagrass, crabgrass, downy brome, foxtail, Johnsongrass, nutsedge, quackgrass, ryegrass, wild oats, yellow millet); test: Preemergence herbicidal activity (% control) against monocot weeds; type: in vivo; details: average, about two weeks after application
From the text: as §1, §2, §3, §4, §5, §6, §7, §8, §9, §10

[6] = system: Monocots (barnyardgrass, Bermudagrass, crabgrass, downy brome, foxtail, Johnsongrass, nutsedge, quackgrass, ryegrass, wild oats, yellow millet); test: Postemergence herbicidal activity (% control) against monocot weeds; type: in vivo; details: average, about two weeks after application
From the text: as §1, §2, §3, §4, §5, §6, §7, §8, §9, §10

[7] = system: Dicots (bindweed, cocklebur, coffeeweed, curly dock, lambsquarters, morningglory, pigweed, ragweed, smartweed, tomato, velvetleaf, wild carrot, wild mustard); test: Preemergence herbicidal activity (% control) against dicot weeds; details: average, about two weeks after application
[8] = system: Dicots (bindweed, cocklebur, coffeeweed, curly dock, lambsquarters, morningglory, pigweed, ragweed, smartweed, tomato, velvetleaf, wild carrot, wild mustard); test: Postemergence herbicidal activity (% control) against dicot weeds; details: average, about two weeks after application
[9] = postemergence applications or applications on transplanted rice

**Q.** For C#CC(C)Oc1cc(Oc2ccc(C(F)(F)F)cc2Cl)ccc1[N+](=O)[O-] (centres unmarked) [Example 30], which activity at 2241.7 g/ha [1] is on record?
**A.** 78%

**Q.** What about the activity at 4483.4 g/ha [1] of the same compound?
**A.** 81%

**Q.** What about the activity at 2241.7 g/ha [2] of the same compound?
**A.** 91%

**Q.** What about the activity at 4483.4 g/ha [2] of the same compound?
**A.** 75%

**Q.** And the Tolerance to cotton (cotton)?
**A.** Tolerance (significant tolerance (as shown by 50% or less kill of the test crop at levels of application which give more than 50% kill of many or all of the weeds of Example 73))

**Q.** And the Tolerance to peanuts (peanuts; preemergence applications)?
**A.** Tolerance (significant tolerance (as shown by 50% or less kill of the test crop at levels of application which give more than 50% kill of many or all of the weeds of Example 73))

**Q.** What about the Tolerance to rice (rice; [9]) of the same compound?
**A.** Tolerance (significant tolerance (as shown by 50% or less kill of the test crop at levels of application which give more than 50% kill of many or all of the weeds of Example 73))

**Q.** What about the Tolerance to rice (rice; preemergence applications) of the same compound?
**A.** Tolerance (significant tolerance (as shown by 50% or less kill of the test crop at levels of application which give more than 50% kill of many or all of the weeds of Example 73))

**Q.** And the Tolerance to soybeans (soybeans)?
**A.** Tolerance (significant tolerance (as shown by 50% or less kill of the test crop at levels of application which give more than 50% kill of many or all of the weeds of Example 73))

**Q.** What about the Tolerance to wheat (wheat; postemergence applications) of the same compound?
**A.** Tolerance (significant tolerance (as shown by 50% or less kill of the test crop at levels of application which give more than 50% kill of many or all of the weeds of Example 73))

**Q.** What about the activity at 2241.7 g/ha [3] of the same compound?
**A.** 94%

**Q.** And the activity at 4483.4 g/ha [3]?
**A.** 99%

**Q.** And the activity at 2241.7 g/ha [4]?
**A.** 100%

**Q.** And the activity at 4483.4 g/ha [4]?
**A.** 100%

**Q.** Which results are given for CCOC(=O)C(C)Oc1cc(Oc2ccc(C(F)(F)F)cc2Cl)ccc1[N+](=O)[O-] (stereo not drawn) [Example 26, 2-Chloro-α,α,α-trifluoro-p-tolyl-3-(1-carbethoxyethoxy)-4-nitrophenyl ether]?
**A.** activity at 2241.7 g/ha [1]: 75%; activity at 4483.4 g/ha [1]: 98%; activity at 2241.7 g/ha [2]: 93%; activity at 4483.4 g/ha [2]: 99%; Tolerance to snapbeans (snapbeans): Tolerance (significant tolerance (as shown by 50% or less kill of the test crop at levels of application which give more than 50% kill of many or all of the weeds of Example 73)); Tolerance to corn (corn; postemergence applications): Tolerance (significant tolerance (as shown by 50% or less kill of the test crop at levels of application which give more than 50% kill of many or all of the weeds of Example 73)); Tolerance to soybeans (soybeans): Tolerance (significant tolerance (as shown by 50% or less kill of the test crop at levels of application which give more than 50% kill of many or all of the weeds of Example 73)); Tolerance to wheat (wheat; preemergence applications): Tolerance (significant tolerance (as shown by 50% or less kill of the test crop at levels of application which give more than 50% kill of many or all of the weeds of Example 73)); activity at 2241.7 g/ha [3]: 99%; activity at 4483.4 g/ha [3]: 100%; activity at 2241.7 g/ha [4]: 100%; activity at 4483.4 g/ha [4]: 100%

**Q.** For O=C([O-])c1cc(Oc2ccc(C(F)(F)F)cc2Cl)ccc1[N+](=O)[O-].[Na+] [Example 48A, Sodium 5-(2-Chloro-4-trifluoromethylphenoxy)-2-nitrobenzoate], which “Herbicidal activity (% control), preemergence, monocots” value ([5]; 2 lb./A.) is on record?
**A.** 89%

**Q.** And the “Herbicidal activity (% control), preemergence, monocots” value ([5]; 4 lb./A.)?
**A.** 99%

**Q.** And the “Herbicidal activity (% control), postemergence, monocots” value ([6]; 2 lb./A.)?
**A.** 86%

**Q.** What about the “Herbicidal activity (% control), postemergence, monocots” value ([6]; 4 lb./A.) of the same compound?
**A.** 92%

**Q.** What about the “Herbicidal activity (% control), preemergence, dicots” value ([7]; 2 lb./A.) of the same compound?
**A.** 84%

**Q.** And the “Herbicidal activity (% control), preemergence, dicots” value ([7]; 4 lb./A.)?
**A.** 98%

**Q.** What about the “Herbicidal activity (% control), postemergence, dicots” value ([8]; 2 lb./A.) of the same compound?
**A.** 98%

**Q.** What about the “Herbicidal activity (% control), postemergence, dicots” value ([8]; 4 lb./A.) of the same compound?
**A.** 100%

**Q.** For CCN(CCO)c1cc(Oc2ccc(C(F)(F)F)cc2Cl)ccc1[N+](=O)[O-] [Example 54], which activity at 2241.7 g/ha [1] is on record?
**A.** 98%

**Q.** And the activity at 4483.4 g/ha [1]?
**A.** 83%

**Q.** And the activity at 2241.7 g/ha [2]?
**A.** 71%

**Q.** What about the activity at 4483.4 g/ha [2] of the same compound?
**A.** 79%

**Q.** What about the Tolerance to corn (corn; postemergence applications) of the same compound?
**A.** Tolerance (significant tolerance (as shown by 50% or less kill of the test crop at levels of application which give more than 50% kill of many or all of the weeds of Example 73))

**Q.** What about the Tolerance to corn (corn; preemergence applications) of the same compound?
**A.** Tolerance (significant tolerance (as shown by 50% or less kill of the test crop at levels of application which give more than 50% kill of many or all of the weeds of Example 73))

**Q.** What about the Tolerance to peanuts (peanuts; postemergence applications) of the same compound?
**A.** Tolerance (significant tolerance (as shown by 50% or less kill of the test crop at levels of application which give more than 50% kill of many or all of the weeds of Example 73))

**Q.** What about the Tolerance to rice (rice; [9]) of the same compound?
**A.** Tolerance (significant tolerance (as shown by 50% or less kill of the test crop at levels of application which give more than 50% kill of many or all of the weeds of Example 73))

**Q.** And the Tolerance to rice (rice; preemergence applications)?
**A.** Tolerance (significant tolerance (as shown by 50% or less kill of the test crop at levels of application which give more than 50% kill of many or all of the weeds of Example 73))

**Q.** And the Tolerance to soybeans (soybeans)?
**A.** Tolerance (significant tolerance (as shown by 50% or less kill of the test crop at levels of application which give more than 50% kill of many or all of the weeds of Example 73))

**Q.** And the Tolerance to wheat (wheat; postemergence applications)?
**A.** Tolerance (significant tolerance (as shown by 50% or less kill of the test crop at levels of application which give more than 50% kill of many or all of the weeds of Example 73))

**Q.** And the Tolerance to wheat (wheat; preemergence applications)?
**A.** Tolerance (significant tolerance (as shown by 50% or less kill of the test crop at levels of application which give more than 50% kill of many or all of the weeds of Example 73))

**Q.** What about the activity at 4483.4 g/ha [3] of the same compound?
**A.** 75%

**Q.** And the activity at 2241.7 g/ha [4]?
**A.** 100%

**Q.** And the activity at 4483.4 g/ha [4]?
**A.** 100%

**Q.** Which results are given for CC(C)Oc1cc(Oc2ccc(C(F)(F)F)cc2Cl)ccc1[N+](=O)[O-] [Example 4]?
**A.** activity at 4483.4 g/ha [1]: 98%; activity at 4483.4 g/ha [2]: 80%; Tolerance to snapbeans (snapbeans): Tolerance (significant tolerance (as shown by 50% or less kill of the test crop at levels of application which give more than 50% kill of many or all of the weeds of Example 73)); Tolerance to corn (corn; postemergence applications): Tolerance (significant tolerance (as shown by 50% or less kill of the test crop at levels of application which give more than 50% kill of many or all of the weeds of Example 73)); Tolerance to corn (corn; preemergence applications): Tolerance (significant tolerance (as shown by 50% or less kill of the test crop at levels of application which give more than 50% kill of many or all of the weeds of Example 73)); Tolerance to cotton (cotton): Tolerance (significant tolerance (as shown by 50% or less kill of the test crop at levels of application which give more than 50% kill of many or all of the weeds of Example 73)); Tolerance to peanuts (peanuts; postemergence applications): Tolerance (significant tolerance (as shown by 50% or less kill of the test crop at levels of application which give more than 50% kill of many or all of the weeds of Example 73)); Tolerance to rice (rice; preemergence applications): Tolerance (significant tolerance (as shown by 50% or less kill of the test crop at levels of application which give more than 50% kill of many or all of the weeds of Example 73)); Tolerance to soybeans (soybeans): Tolerance (significant tolerance (as shown by 50% or less kill of the test crop at levels of application which give more than 50% kill of many or all of the weeds of Example 73)); Tolerance to wheat (wheat; postemergence applications): Tolerance (significant tolerance (as shown by 50% or less kill of the test crop at levels of application which give more than 50% kill of many or all of the weeds of Example 73)); Tolerance to wheat (wheat; preemergence applications): Tolerance (significant tolerance (as shown by 50% or less kill of the test crop at levels of application which give more than 50% kill of many or all of the weeds of Example 73)); activity at 4483.4 g/ha [3]: 100%; activity at 4483.4 g/ha [4]: 100%
